From article PMC2916031 (Journal of molecular biology, 2010)

Legend:
[1] = molecular target: C-terminally truncated MEAT1 (Trypanosoma brucei, UniProt C7AJA4); experiment: U-addition to […]'-labelled RNA, denaturing gel; format: biochemical; conditions: 100 µM UTP, 300 nM enzyme, 1 µM RNA, Mg acetate, pH 8.0, 27 °C
full-length TbMEAT1 = full-length TbMEAT1 (Trypanosoma brucei, UniProt C7AJA4); experiment: U-addition to […]'-labelled RNA, denaturing gel; format: biochemical; conditions: 100 µM UTP, 300 nM enzyme, 1 µM RNA, Mg acetate, pH 8.0, 27 °C
full-length TbMEAT1, sequence (C7AJA4 whole entry): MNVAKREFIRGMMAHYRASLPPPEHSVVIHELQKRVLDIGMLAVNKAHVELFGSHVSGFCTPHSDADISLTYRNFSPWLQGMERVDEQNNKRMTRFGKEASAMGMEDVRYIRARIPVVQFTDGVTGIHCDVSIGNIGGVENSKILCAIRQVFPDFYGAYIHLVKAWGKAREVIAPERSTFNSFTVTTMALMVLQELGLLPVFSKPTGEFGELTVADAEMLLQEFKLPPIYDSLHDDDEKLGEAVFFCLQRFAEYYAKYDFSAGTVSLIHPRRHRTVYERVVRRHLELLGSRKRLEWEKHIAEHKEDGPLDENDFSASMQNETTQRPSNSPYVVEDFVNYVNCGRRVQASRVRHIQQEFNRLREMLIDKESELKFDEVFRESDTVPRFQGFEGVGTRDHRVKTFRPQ

C-terminally truncated MEAT1, sequence (C7AJA4 1-381): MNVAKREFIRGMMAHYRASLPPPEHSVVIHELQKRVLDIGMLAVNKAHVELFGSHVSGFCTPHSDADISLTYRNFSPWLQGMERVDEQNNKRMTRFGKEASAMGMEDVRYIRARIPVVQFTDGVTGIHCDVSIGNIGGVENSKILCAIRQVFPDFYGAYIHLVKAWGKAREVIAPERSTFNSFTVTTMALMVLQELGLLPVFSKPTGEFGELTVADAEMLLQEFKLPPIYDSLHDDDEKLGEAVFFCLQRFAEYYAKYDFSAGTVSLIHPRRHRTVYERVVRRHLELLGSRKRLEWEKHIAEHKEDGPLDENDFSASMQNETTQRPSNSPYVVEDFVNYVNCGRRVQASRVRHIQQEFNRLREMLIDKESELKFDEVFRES

How did the “U-addition to 5'-labelled RNA, denaturing gel” value [1] turn out when `O=c1ccn([C@@H]2O[C@H](COP(=O)(O)OP(=O)(O)OP(=O)(O)O)[C@@H](O)[C@H]2O)c(=O)[nH]1` [UTP] was run?
The value was “neither limited proteolysis nor genetically-engineered C-terminal deletion had any discernable effects on enzymatic activity”.

What about the “U-addition to 5'-labelled RNA, denaturing gel” value (full-length TbMEAT1) of the same compound?
The value was “U-addition patterns for full-length TbMEAT1”.
